Target: CREBBP (Homo sapiens (Human), UniProt Q92793)
Assay: In vitro enzyme inhibition assay - CREBBP inhibition (AlphaScreen, biotinylated H4-tetraacetyl peptide)
Format: binding
Details: Table 28; AlphaScreen, H4-tetraacetyl peptide
Summary of the method: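 Displacement of 20 nM biotinylated tetraacetyl-H4 peptide from 50 nM E. coli-expressed His-CREBBP, measured by AlphaScreen after bead equilibration for 2 h.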

Chain of CREBBP (Q92793 1081-1197): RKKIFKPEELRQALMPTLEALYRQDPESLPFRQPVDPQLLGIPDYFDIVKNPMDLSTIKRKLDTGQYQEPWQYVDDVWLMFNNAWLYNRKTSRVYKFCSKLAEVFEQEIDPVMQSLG

CCCCS(=O)(=O)Nc1cc(-c2cc(C)c(=O)n(C)c2)nc(Oc2c(C)cc(F)cc2Cl)n1 [Example 98, Butane-1-sulfonic acid [2-(2-chloro-4-fluoro-6-methyl-phenoxy)-6-(1,5-dimethyl-6-oxo-1,6-dihydro-pyridin-3-yl)-pyrimidin-4-yl]-amide]
IC50: < 500 nM

CCCS(=O)(=O)Nc1cc(-c2cc(C)c(=O)n(C)c2)nc(Oc2c(C)cc(F)cc2Cl)n1 [Example 99, Propane-1-sulfonic acid [2-(2-chloro-4-fluoro-6-methyl-phenoxy)-6-(1,5-dimethyl-6-oxo-1,6-dihydro-pyridin-3-yl)-pyrimidin-4-yl]-amide]
IC50: < 500 nM

Cc1cc(F)cc(Cl)c1Oc1nc(NS(=O)(=O)C(C)C)cc(-c2cc(C)c(=O)n(C)c2)n1 [Example 100, Propane-2-sulfonic acid [2-(2-chloro-4-fluoro-6-methyl-phenoxy)-6-(1,5-dimethyl-6-oxo-1,6-dihydro-pyridin-3-yl)-pyrimidin-4-yl]-amide]
IC50: < 500 nM

CCCS(=O)(=O)Nc1cc(-c2cc(C)c(=O)n(C)c2)nc(Oc2c(C)cccc2Cl)n1 [Example 101, Propane-1-sulfonic acid [2-(2-chloro-6-methyl-phenoxy)-6-(1,5-dimethyl-6-oxo-1,6-dihydro-pyridin-3-yl)-pyrimidin-4-yl]-amide]
IC50: < 500 nM

CCCCS(=O)(=O)Nc1cc(-c2ccc(=O)n(C)c2)nc(Oc2c(C)cccc2Cl)n1 [Example 102, Butane-1-sulfonic acid [2-(2-chloro-6-methyl-phenoxy)-6-(1-methyl-6-oxo-1,6-dihydro-pyridin-3-yl)-pyrimidin-4-yl]-amide]
IC50: < 500 nM

CCCS(=O)(=O)Nc1cc(-c2ccc(=O)n(C)c2)nc(Oc2c(C)cccc2Cl)n1 [Example 103, Propane-1-sulfonic acid [2-(2-chloro-6-methyl-phenoxy)-6-(1-methyl-6-oxo-1,6-dihydro-pyridin-3-yl)-pyrimidin-4-yl]-amide]
IC50: < 500 nM

Cc1cccc(Cl)c1Oc1nc(NS(=O)(=O)C(C)C)cc(-c2ccc(=O)n(C)c2)n1 [Example 104, Propane-2-sulfonic acid [2-(2-chloro-6-methyl-phenoxy)-6-(1-methyl-6-oxo-1,6-dihydro-pyridin-3-yl)-pyrimidin-4-yl]-amide]
IC50: < 500 nM

COc1cc(-c2cc(NS(=O)(=O)C(C)C)nc(Oc3c(C)cccc3C)n2)cn(C)c1=O [Example 105, N-(2-(2,6-dimethylphenoxy)-6-(5-methoxy-1-methyl-6-oxo-1,6-dihydropyridin-3-yl)pyrimidin-4-yl)propane-2-sulfonamide]
IC50: < 500 nM

CCCCS(=O)(=O)Nc1cc(-c2cc(OC)c(=O)n(C)c2)nc(Oc2c(C)cccc2C)n1 [Example 106, N-(2-(2,6-dimethylphenoxy)-6-(5-methoxy-1-methyl-6-oxo-1,6-dihydropyridin-3-yl)pyrimidin-4-yl)butane-1-sulfonamide]
IC50: < 500 nM

CCCS(=O)(=O)Nc1cc(Oc2c(C)cccc2Cl)nc(-c2cc(C)c(=O)n(C)c2)n1 [Example 107, Propane-1-sulfonic acid [6-(2-chloro-6-methyl-phenoxy)-2-(1,5-dimethyl-6-oxo-1,6-dihydro-pyridin-3-yl)-pyrimidin-4-yl]-amide]
IC50: < 500 nM

CCCCS(=O)(=O)Nc1cc(-c2ccc(=O)n(C)c2)nc(Oc2c(C)cccc2C#N)n1 [Example 108, Butane-1-sulfonic acid [2-(2-cyano-6-methyl-phenoxy)-6-(1-methyl-6-oxo-1,6-dihydro-pyridin-3-yl)-pyrimidin-4-yl]-amide]
IC50: < 500 nM

CCCS(=O)(=O)Nc1cc(-c2ccc(=O)n(C)c2)nc(Oc2c(C)cccc2C#N)n1 [Example 109, Propane-1-sulfonic acid [2-(2-cyano-6-methyl-phenoxy)-6-(1-methyl-6-oxo-1,6-dihydro-pyridin-3-yl)-pyrimidin-4-yl]-amide]
IC50: < 500 nM

Cc1cccc(C#N)c1Oc1nc(NS(=O)(=O)C(C)C)cc(-c2ccc(=O)n(C)c2)n1 [Example 110, Propane-2-sulfonic acid [2-(2-cyano-6-methyl-phenoxy)-6-(1-methyl-6-oxo-1,6-dihydro-pyridin-3-yl)-pyrimidin-4-yl]-amide]
IC50: < 500 nM

CCCS(=O)(=O)Nc1cc(-c2cc(C)c(=O)n(C)c2)nc(Oc2ccncc2C)n1 [Example 111, Propane-1-sulfonic acid [6-(1,5-dimethyl-6-oxo-1,6-dihydro-pyridin-3-yl)-2-(3-methyl-pyridin-4-yloxy)-pyrimidin-4-yl]-amide]
IC50: 500 to 5000 nM

CCCS(=O)(=O)Nc1cc(-c2cc(C)c(=O)n(C)c2)nc(Oc2cnccc2C)n1 [Example 112, Propane-1-sulfonic acid [6-(1,5-dimethyl-6-oxo-1,6-dihydro-pyridin-3-yl)-2-(4-methyl-pyridin-3-yloxy)-pyrimidin-4-yl]-amide]
IC50: < 500 nM

CCCCS(=O)(=O)Nc1cc(-c2cc(Cl)c(=O)n(C)c2)nc(Oc2c(C)cccc2C#N)n1 [Example 114, Butane-1-sulfonic acid [6-(5-chloro-1-methyl-6-oxo-1,6-dihydro-pyridin-3-yl)-2-(2-cyano-6-methyl-phenoxy)-pyrimidin-4-yl]-amide]
IC50: < 500 nM

Cc1cccc(C#N)c1Oc1nc(NS(=O)(=O)CCCF)cc(-c2cc(C)c(=O)n(C)c2)n1 [Example 115, 3-Fluoro-propane-1-sulfonic acid [2-(2-cyano-6-methyl-phenoxy)-6-(1,5-dimethyl-6-oxo-1,6-dihydro-pyridin-3-yl)-pyrimidin-4-yl]-amide]
IC50: < 500 nM

CCS(=O)(=O)Nc1cc(-c2ccc(=O)n(C)c2)nc(Oc2c(C)cccc2F)n1 [Example 116, Ethanesulfonic acid [2-(2-fluoro-6-methyl-phenoxy)-6-(1-methyl-6-oxo-1,6-dihydro-pyridin-3-yl)-pyrimidin-4-yl]-amide]
IC50: < 500 nM

Cc1cccc(F)c1Oc1nc(NS(=O)(=O)C(C)C)cc(-c2cc(Cl)c(=O)n(C)c2)n1 [Example 117, Propane-2-sulfonic acid [6-(5-chloro-1-methyl-6-oxo-1,6-dihydro-pyridin-3-yl)-2-(2-fluoro-6-methyl-phenoxy)-pyrimidin-4-yl]-amide]
IC50: < 500 nM

Cc1cccc(F)c1Oc1nc(NS(=O)(=O)C(C)C)cc(-c2ccc(=O)n(C)c2)n1 [Example 119, Propane-2-sulfonic acid [2-(2-fluoro-6-methyl-phenoxy)-6-(1-methyl-6-oxo-1,6-dihydro-pyridin-3-yl)-pyrimidin-4-yl]-amide]
IC50: < 500 nM

CCCS(=O)(=O)Nc1cc(-c2ccc(=O)n(C)c2)nc(Oc2c(C)cccc2F)n1 [Example 120, Propane-1-sulfonic acid [2-(2-fluoro-6-methyl-phenoxy)-6-(1-methyl-6-oxo-1,6-dihydro-pyridin-3-yl)-pyrimidin-4-yl]-amide]
IC50: < 500 nM

CCCCS(=O)(=O)Nc1cc(-c2cc(Cl)c(=O)n(C)c2)nc(Oc2c(C)cccc2F)n1 [Example 122, Butane-1-sulfonic acid [6-(5-chloro-1-methyl-6-oxo-1,6-dihydro-pyridin-3-yl)-2-(2-fluoro-6-methyl-phenoxy)-pyrimidin-4-yl]-amide]
IC50: < 500 nM

Cc1cccc(C#N)c1Oc1nc(NS(=O)(=O)CCCF)cc(-c2ccc(=O)n(C)c2)n1 [Example 123, 3-Fluoro-propane-1-sulfonic acid [2-(2-cyano-6-methyl-phenoxy)-6-(1-methyl-6-oxo-1,6-dihydro-pyridin-3-yl)-pyrimidin-4-yl]-amide]
IC50: < 500 nM

CCCCS(=O)(=O)Nc1cc(-c2ccc(=O)n(C)c2)nc(Oc2c(C)nn(C)c2C)n1 [Example 124, Butane-1-sulfonic acid [6-(1-methyl-6-oxo-1,6-dihydro-pyridin-3-yl)-2-(1,3,5-trimethyl-1H-pyrazol-4-yloxy)-pyrimidin-4-yl]-amide]
IC50: < 500 nM

Cc1nn(C)c(C)c1Oc1nc(NS(=O)(=O)C(C)C)cc(-c2ccc(=O)n(C)c2)n1 [Example 125, Propane-2-sulfonic acid [6-(1-methyl-6-oxo-1,6-dihydro-pyridin-3-yl)-2-(1,3,5-trimethyl-1H-pyrazol-4-yloxy)-pyrimidin-4-yl]-amide]
IC50: < 500 nM

CCCS(=O)(=O)Nc1cc(-c2ccc(=O)n(C)c2)nc(Oc2c(C)nn(C)c2C)n1 [Example 126, Propane-1-sulfonic acid [6-(1-methyl-6-oxo-1,6-dihydro-pyridin-3-yl)-2-(1,3,5-trimethyl-1H-pyrazol-4-yloxy)-pyrimidin-4-yl]-amide]
IC50: < 500 nM

CCn1nc(C)c(Oc2nc(NS(=O)(=O)C(C)C)cc(-c3cc(C)c(=O)n(C)c3)n2)c1C [Example 127, Propane-2-sulfonic acid [6-(1,5-dimethyl-6-oxo-1,6-dihydro-pyridin-3-yl)-2-(1-ethyl-3,5-dimethyl-1H-pyrazol-4-yloxy)-pyrimidin-4-yl]-amide]
IC50: < 500 nM

CCCCS(=O)(=O)Nc1cc(-c2cc(C)c(=O)n(C)c2)nc(Oc2c(C)nn(CC)c2C)n1 [Example 128, Butane-1-sulfonic acid [6-(1,5-dimethyl-6-oxo-1,6-dihydro-pyridin-3-yl)-2-(1-ethyl-3,5-dimethyl-1H-pyrazol-4-yloxy)-pyrimidin-4-yl]-amide]
IC50: < 500 nM

CCCS(=O)(=O)Nc1cc(Oc2c(C)cccc2C#N)nc(-c2cc(C)c(=O)n(C)c2)n1 [Example 129, Propane-1-sulfonic acid [6-(2-cyano-6-methyl-phenoxy)-2-(1,5-dimethyl-6-oxo-1,6-dihydro-pyridin-3-yl)-pyrimidin-4-yl]-amide]
IC50: < 500 nM

CCCS(=O)(=O)Nc1cc(Oc2c(C#N)cccc2OC)nc(-c2cc(C)c(=O)n(C)c2)n1 [Example 130, Propane-1-sulfonic acid [6-(2-cyano-6-methoxy-phenoxy)-2-(1,5-dimethyl-6-oxo-1,6-dihydro-pyridin-3-yl)-pyrimidin-4-yl]-amide]
IC50: < 500 nM

CCS(=O)(=O)Nc1cc(-c2cc(C)c(=O)n(C)c2)nc(OC2CCCC2)n1 [Example 131, Ethanesulfonic acid [2-cyclopentyloxy-6-(1,5-dimethyl-6-oxo-1,6-dihydro-pyridin-3-yl)-pyrimidin-4-yl]-amide]
IC50: < 500 nM

Source: patent US10202360B2 (CELGENE QUANTICEL RESEARCH, INC., priority 2016, dated 2019)
